Reference: US4714699A, “2-tolylmorpholine derivatives and pharmaceutical compositions” (Societe Anonyme Dite: Laboratoire L. Lafon, priority 1983, dated 1987)
“Also recorded” adds a separate entry of the source. Where two headings read alike, the source gives them in different places.

What was measured:
[1] = overall behavior and reactivities in mice; assay type: in vivo, male mice
Method: (§1) In the following tests, CRL 40 875, in solution in distilled water, was administered intraperitoneally in a volume of 20 ml/kg to male mice and 5 ml/kg to male rats.
Groups of three mice are observed before and then 15 minutes, 30 minutes, 1 hour, 2 hours, 3 hours and 24 hours after the administration of CRL 40 875.
(§2) In the following tests, CRL 40 897, in solution in distilled water (pH 4), was administered intraperitoneally in a volume of 20 ml/kg to male mice and in a volume of 5 ml/kg to male rats, the procedures being those given above for CRL 40 875.
(§3) The toxicological and neuropsychopharmacological studies undertaken in accordance with the procedures described above for CRL 40 875 enabled the following observations to be made: […]

overall behavior in rats = assay type: in vivo, male rats
Method: as §1, §3

[2] = cardiovascular study in dogs; assay type: in vivo; details: for minimal effective dose: Canis lupus familiaris, read-out: dose as from which femoral flow rate is increased; for vasodilator property: dog, in vivo
[3] = neuropsychopharmacological study, overall findings; assay type: in vivo, mice, rats; details: for sedative effects: weak doses where stated
Method: as §1, §2
(§4) In the tests undertaken, CRL 40 912, in solution in distilled water (pH 4.5), was administered intraperitoneally in a volume of 20 ml/kg to male mice and in a volume of 5 ml/kg to male rats, the procedures being those given above for CRL 40 875.
as §3

[4] = pretoxicity (LD-O, maximum non-lethal dose); assay type: in vivo, male mice; details: for LD-O (maximum non-lethal dose): intraperitoneally, male mice
Method: as §1, §2, §4, §3

β2 = β2 effect in dogs; assay type: in vivo; details: intraduodenal, anesthetized dogs
β1 = β1 effect in dogs; assay type: in vivo; details: intraduodenal, anesthetized dogs
[5] = interaction with reserpine; assay type: in vivo, male mice; details: i.p., mice
Method: as §1
Four hours after the intraperitoneal injection of 2.5 mg/kg of reserpine, groups of 6 mice receive CRL 40 875. The effects on the temperature and ptosis are observed.
as §2, §4

electric shock = assay type: in vivo, male mice; details: i.p., mice
Method: as §1
(§5) The test is performed on groups of 10 mice half an hour after the administration of CRL 40 875.
as §2

[6] = interaction with apomorphine in mice; assay type: in vivo, male mice; details: mice
Method: as §1
Groups of 6 mice receive CRL 40 875 0.5 hour before the subcutaneous injection of 1 or 16 mg/kg of apomorphine.
as §2, §4

[7] = action on the intergroup aggressiveness; assay type: in vivo, male mice; details: 0.5 mg/kg and 2 mg/kg i.p., mice
Method: as §1
After they have stayed for 3 weeks in the two halves of a cage divided by an opaque partition, groups of 3 mice receive CRL 40 875. Half an hour later, the two groups from the same cage are brought together by removal of the partition, and the number of fights which occur in 10 minutes is noted.
as §2, §4

[8] = interaction with oxotremorine; assay type: in vivo, male mice
Method: as §1
CRL 40 875 is administered to groups of 6 mice half an hour before the intraperitoneal injection of 0.5 mg/kg of oxotremorine.
as §2, §4

four plate test = assay type: in vivo, male mice; details: i.p., mice
Method: as §1, §5, §2

traction test = assay type: in vivo, male mice; details: i.p., mice
Method: as §1, §5, §2

[9] = motility reduced by habituation to the enclosure; assay type: in vivo, male mice; details: i.p.
Method: as §1
After they have stayed in the actimeters for 18 hours, the mice (6 per dose, 12 control animals) receive CRL 40 875. They are immediately returned to their respective enclosures and, half an hour later, their motility is recorded for 30 minutes.
as §2, §4

[10] = interaction with amphetamine; assay type: in vivo, male rats; details: i.p.; 2 mg/kg amphetamine; rats
Method: as §1, §2, §4

[11] = cardiovascular study in rats; assay type: in vivo; details: normally hypertensive rats
[12] = motility reduced by hypoxic aggression; assay type: in vivo, male mice; details: i.p.
Method: as §1
Half an hour after they have received CRL 40 875, the mice (10 per dose, 20 control animals) are subjected to acute hypobaric anoxia [pressure reduction of 600 mm Hg (i.e. about 8×10^4 pascals) in 90 seconds; release of vacuum in 45 seconds] and are then placed in an actimeter, where their motility is recorded for 10 minutes.
as §2

[13] = interaction with apomorphine in rats; assay type: in vivo, male rats; details: i.p., 0.5 mg/kg apomorphine
Method: as §1
CRL 40 875 is administered to groups of 6 rats 0.5 hour before the subcutaneous injection of 0.5 mg/kg of apomorphine.
as §2, §4

[14] = action on the spontaneous motility; assay type: in vivo, male mice; details: mice
Method: as §1
Half an hour after they have received CRL 40 875, the mice (6 per dose, 12 control animals) are placed in an actimeter, where their motility is recorded for 30 minutes.
as §2

α-adrenergic = α-adrenergic stimulation; details: in vivo; hydrochloride
[15] = clinical trials, treatment of depressions; assay type: in vivo; details: man
Text: In clinical trials, good results were obtained on man with CRL 40 875 (Example 1), CRL 40 912 (Example 2) and CRL 40 897 (Example 3) in the treatment of depressions.

[16] = asphyxiant anoxia (gallamine triiodoethylate); assay type: in vivo, male mice; details: i.p., mice
Method: as §1
Groups of 20 mice receive CRL 40 875 half an hour before the intraperitoneal administration of 32 mg/kg of gallamine triidoethylate (which is a reference curarizing agent).
as §2, §4

[17] = from EP-A-80,940, page 13, lines 6-10; cited from earlier work
[18] = anesthetized dogs, intraduodenal (CRL 40 903: then intravenous)
[19] = intraduodenal, anesthetized dogs
[20] = 64 mg/kg and 32 mg/kg i.p., mice
[21] = 128 mg/kg i.p., groups of three mice

Structure (SMILES): Cc1ccc(C2CN(C(C)(C)C)CCO2)cc1.Cl (stereo not drawn) [CRL 40 903, 2-p-tolyl-4-tert.-butylmorpholine hydrochloride]
- sedation and depressed respiration ([1]; 64 mg/kg and 128 mg/kg i.p., male mice): induce sedation and depressed respiration
- sedation and depressed respiration (overall behavior in rats; 32 mg/kg i.p., male rats): induce sedation and depressed respiration
- maximum increase in femoral flow rate ([2]; 20 mg/kg, anesthetized dogs, intraduodenal then intravenous): +150%
- minimal effective dose [2, 18]: ≥ 2.5 mg/kg
- dose as from which tachycardia appears [2, 18]: ≥ 1 mg/kg
- effect on blood pressure [2, 18]: no action on the blood pressure
- effect on the hypertension induced by noradrenaline [2, 18]: does not modify the hypertension induced by noradrenaline
- effect on the hypotension / effects of isoprenaline [2, 18]: reduces the hypotension induced by isoprenaline
- effect of propanolol on induced vasodilation ([2]; anesthetized dogs, intraduodenal then intravenous): not completely suppressed by propanolol
- vasodilator property [2]: particularly interesting as vasodilators
- sedative effects [3]: sedative effects
- LD-O (maximum non-lethal dose) [4]: greater than 128 mg/kg

Structure (SMILES): CCN1CCOC(O)(c2cccc(C(F)(F)F)c2)C1.Cl (stereo not drawn) [CRL 41 092, 2-(m-trifluoromethylphenyl)-2-hydroxy-4-ethylmorpholine hydrochloride]
- hypothermia ([1]; 32 mg/kg i.p., mice): moderate hypothermia
- duration of sedation ([1]; 128 mg/kg i.p., mice): 0.5 h
- fear reaction, reactivity to touch and muscular tonus ([1]; 128 mg/kg i.p., mice): a reduction in the fear reaction, the reactivity to touch and the muscular tonus
- sedation, reactivity to touch and muscular tonus (overall behavior in rats; 64 mg/kg i.p., rats): transistory sedation with a reduction in the reactivity to touch and the muscular tonus
- minimal effective dose [2, 18]: ≥ 1 mg/kg
- effect on blood pressure [2, 18]: tends to increase the blood pressure
- effect on the hypertension induced by noradrenaline [2, 18]: increases the hypertension induced by noradrenaline
- femoral flow rate ([2]; as from 1 mg/kg intraduodenally, anesthetized dogs): greatly increases the femoral flow rate
- vasodilator property [2]: particularly interesting as vasodilators
- effect on heart beat [2, 19]: does not modify the heart beat
- rectal and skin temperatures [2, 19]: a reduction in the vertebral flow rate and also in the rectal and skin temperatures
- vertebral flow rate [2, 19]: a reduction in the vertebral flow rate
- femoral flow rate after propanolol ([2]; propanolol injected at the end of the test, anesthetized dogs): remaining above its control value
- effect of propanolol on heart beat and femoral flow rate ([2]; propanolol injected at the end of the test, anesthetized dogs, intraduodenal): very slightly reduces the heart beat and femoral flow rate
- sedative effects [3]: sedative effects
- β2 effect (β2): very slightly β1^- and β2^-
- β1 effect (β1): very slightly β1^-
- LD-O (maximum non-lethal dose) [4]: greater than 256 mg/kg

Structure (SMILES): Cc1ccc(C2CN(C(C)C)CCO2)cc1.Cl (stereo not drawn) [CRL 40 875, 2-p-tolyl-4-isopropylmorpholine hydrochloride]
- duration of hypothermia ([1]; 2 mg/kg i.p., mice): 0.5 h
- hypothermia (temperature change) ([1]; 2 mg/kg i.p., mice): -1.5 °C
- duration of hypothermia ([1]; 8 mg/kg i.p., mice): 1 h
- duration of piloerection ([1]; 8 mg/kg i.p., mice): 3 h
- hypothermia (temperature change) ([1]; 8 mg/kg i.p., mice): -3.9 °C
- piloerection, animals affected ([1]; 8 mg/kg i.p., mice): 2/3
- duration of mydriasis ([1]; 32 mg/kg i.p., mice): 0.5 h
- duration of reduction in the reactivity to touch and muscular tonus ([1]; 32 mg/kg i.p., mice): 2 h
- hypothermia (temperature change) ([1]; 32 mg/kg i.p., mice): -4.1 °C
- mydriasis ([1]; 32 mg/kg i.p., mice): moderate mydriasis
- piloerection, animals affected ([1]; 32 mg/kg i.p., mice): 2 out of 3
- effect on the ptosis induced by reserpine [5]: without modifying the ptosis induced by reserpine
- effect on the hypothermia induced by reserpine ([5]; strong dose): aggravates the hypothermia induced by reserpine
- effect on electric shock (electric shock): does not modify the convulsant effects of electric shock
- intrinsic hypothermic effect ([6]; i.p.): exerts an intrinsic hypothermic effect
- effect on righting behavior and stereotypies ([6]; i.p., apomorphine): does not modify the righting behavior and the stereotypies
- effect on the hypothermia induced by apomorphine ([6]; strong dose (32 mg/kg) i.p., 16 mg/kg apomorphine): partially opposes the hypothermia induced by 16 mg/kg of apomorphine
- effect on number of fights [7]: suppression of the fights
- effect on the motor activity [7]: only a moderate effect on the motor activity
- effect on peripheral cholinergic symptoms (defecation) after oxotremorine ([8]; 0.5, 2, 8 and 32 mg/kg i.p., mice): increases the proportion of mice which exhibit defecation
- effect on the trembling due to oxotremorine ([8]; 8 and 32 mg/kg i.p., mice): seems to increase the duration of the trembling due to oxotremorine
- hypothermic effect ([8]; i.p., mice): exerts a hypothermic effect
- effect on the temperature drop caused by oxotremorine ([8]; strong dose, i.p.): partially opposes the temperature drop caused by oxotremorine
- number of punished passes (four plate test): does not cause an increase in the number of punished passes
- effect on blood pressure and heart rate ([2]; dogs): hypotensive and tachycardiac agent
- major motor incapacity (traction test): does not cause major motor incapacity
- resumption in the activity of mice accustomed to their enclosure [9]: does not cause a resumption in the activity of mice accustomed to their enclosure
- effect on stereotypies induced by amphetamine [10]: stereotypies induced by amphetamine are not modified
- variation of sedative effects with dose ([3]; in vivo): increase continuously with the dose administered, up to a maximum value, and then decrease continuously and progressively as the dose increases
- antidepressant effects ([3]; strong doses, hydrochloride): antidepressant effects (antagonism of the hypothermia induced by apomorphine and oxotremorine); also recorded: antidepressants at strong doses
- sedative effects ([3]; hydrochloride): sedative effects (hyporeactivity, hypothermia, hypomotility, significant reduction of aggressiveness, delayed onset of asphyxiant convulsions); also recorded: sedative effects (hypomotility, hypothermia, reduction of intergroup aggressiveness
- cardiovascular parameters [11]: does not modify the cardiovascular parameters
- motor recovery in mice after reduced-pressure enclosure [12]: does not cause an improvement in the motor recovery
- effect on stereotypies induced by apomorphine [13]: does not substantially impair the stereotype behavior induced by apomorphine in rats
- hypomotility ([14]; 8 and 32 mg/kg i.p.): very significant
- minimal effective dose ([14]; Mus musculus, ip, read-out: dose as from which motility is reduced): ≥ 2 mg/kg
- α-adrenergic stimulant effect (α-adrenergic): signs of peripheral α-adrenergic stimulation (salivation, piloerection, trembling); also recorded: stimulant effects, especially of the α-adrenergic type
- results in the treatment of depressions [15]: good results
- time taken for convulsions and death to occur following asphyxiant anoxia [16]: delays the time taken for convulsions and death to occur
- mortality [4, 20]: no mortality
- signs of toxicity [4, 20]: abdominal cramp and trembling
- mortality [4, 21]: death (of the 3 animals in the group)
- signs of toxicity [4, 21]: thick saliva and convulsions
- time to death ([4]; 128 mg/kg i.p., mice): 10 min

Structure (SMILES): Cc1ccccc1C1CN(C)CCO1 (stereo not drawn) [CRL 40 915, 2-o-tolyl-4-methylmorpholine]
- variation of sedative effects with dose [17]: no sedation at a given dose, significant sedation at the next highest dose used
